In ChEMBL document CHEMBL1201862, “PubChem BioAssay data set” (2004):
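Cultured in 96-well plates, cells were exposed to test compound for 48 hours across five concentrations. At the GI50, growth is halved.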 Calls of active or inactive are those of the source. Rule as the data show it: active = GI50 up to about 1.1 µM and inactive = higher.

Experiments:
Assay in all cases: NCI-60 cell line screen, 48 h
[1] = tested on: LXFL 529
[2] = tested on: HOP-18
[3] = tested on: DLD-1
[4] = tested on: M19-MEL
[5] = tested on: KM-20L2
[6] = tested on: DMS-114
[7] = tested on: SNB-78
[8] = tested on: RXF 631
[9] = tested on: XF498

| SMILES | GI50 [1] | GI50 [2] | GI50 [3] | GI50 [4] | GI50 [5] | GI50 [6] | GI50 [7] | GI50 [8] | GI50 [9] |
| --- | --- | --- | --- | --- | --- | --- | --- | --- | --- |
| CCOc1cc2cnc3c4cc(OC)c(OC)cc4ccc3c2cc1OC | 9.02 µM (inactive) | 16.9 µM (inactive) | > 100 µM (inactive) | 39.8 µM (inactive) | > 100 µM (inactive) | 7.1 µM (inactive) | > 100 µM (inactive) |  |  |
| O=C1C2C3SC(c4cc5ccccc5cc43)C2C(=O)N1c1ccccc1 (configuration not stated) | 94.6 µM (inactive) | > 100 µM (inactive) |  | > 100 µM (inactive) | > 100 µM (inactive) | > 100 µM (inactive) | 84.5 µM (inactive) | > 100 µM (inactive) |  |
| Cc1cccc(C)c1NC(=O)CCc1n[nH]c(=S)o1 | > 100 µM (inactive) | > 100 µM (inactive) | 67.9 µM (inactive) | > 100 µM (inactive) | > 100 µM (inactive) | 39.1 µM (inactive) | > 100 µM (inactive) |  |  |
| CCc1c(CNc2ccc(C(=O)NC(CC(=O)O)C(=O)O)cc2)ccc2nc(N)nc(N)c12 (configuration not stated) |  | > 61.9 µM (inactive) | < 0.0223 µM (active) | 0.133 µM (active) | 0.451 µM (active) | < 0.0262 µM (active) | > 60.3 µM (inactive) |  | > 100 µM (inactive) |
| COc1ccc(C(=O)C(C(=O)C(=O)Nc2ccc(Cl)c(Cl)c2)c2ccc(OC)cc2)cc1 (configuration not stated) | > 100 µM (inactive) | > 100 µM (inactive) | > 100 µM (inactive) | > 100 µM (inactive) | > 100 µM (inactive) | 76.9 µM (inactive) | > 100 µM (inactive) |  | > 100 µM (inactive) |
| COc1cc(C2(C)SCCCS2)c(I)c(OC)c1OC | > 100 µM (inactive) | > 100 µM (inactive) | > 100 µM (inactive) | > 100 µM (inactive) | > 100 µM (inactive) | > 100 µM (inactive) | > 100 µM (inactive) | > 100 µM (inactive) | > 100 µM (inactive) |
| CC(=O)OC1C(CCl)OC(N=[N+]=[N-])C(OC(C)=O)C1OC(C)=O (configuration not stated) | > 10 µM (inactive) |  | > 100 µM (inactive) | > 100 µM (inactive) | > 100 µM (inactive) | > 100 µM (inactive) |  | > 100 µM (inactive) | > 100 µM (inactive) |
| O=C1CCN2C(=Nc3cccc4cccc2c34)N1 | > 100 µM (inactive) |  |  | > 100 µM (inactive) | > 100 µM (inactive) | > 100 µM (inactive) | > 100 µM (inactive) |  | > 100 µM (inactive) |
| CP(C)C.[Ag][I] | 16 µM (inactive) | 62.8 µM (inactive) | > 100 µM (inactive) | > 100 µM (inactive) | > 100 µM (inactive) | 73.8 µM (inactive) | 28.4 µM (inactive) | 24.3 µM (inactive) | 15 µM (inactive) |
| CNC(=O)c1cccc2c(Nc3ccc(NS(C)(=O)=O)cc3OC)c3cccc(C)c3nc12 | 1.91 µM (inactive) | 0.571 µM (active) |  | 0.585 µM (active) | 0.409 µM (active) | 0.0322 µM (active) |  |  | 0.196 µM (active) |
| CCOC(=O)C1=C(O)C(=O)c2ccsc2C1=O |  | > 100 µM (inactive) | > 100 µM (inactive) | 20.6 µM (inactive) | > 100 µM (inactive) | > 100 µM (inactive) | > 100 µM (inactive) |  |  |
| Cc1ccc(C2=Nc3ccccc3SC(c3cccc4c3OCO4)C2)cc1 (configuration not stated) | 15 µM (inactive) | 13.5 µM (inactive) | 27.9 µM (inactive) | 19.8 µM (inactive) | 21.3 µM (inactive) |  |  |  | 15.5 µM (inactive) |
| O=C1CCCCCCCCCCOC(=O)CCCCCCCCCCO1 | > 100 µM (inactive) | > 100 µM (inactive) | > 100 µM (inactive) | > 100 µM (inactive) | > 10 µM (inactive) | > 100 µM (inactive) | > 100 µM (inactive) |  |  |
| O=C(O)C1(c2ccccc2)CCCNCC1 (configuration not stated) | > 100 µM (inactive) | > 100 µM (inactive) | > 100 µM (inactive) | > 100 µM (inactive) | > 100 µM (inactive) | > 100 µM (inactive) | > 100 µM (inactive) | > 100 µM (inactive) |  |
| Cc1[nH]c2ccccc2c1C1=NO/C(=N\O)C(c2c(C)[nH]c3ccccc23)C1 (configuration not stated) | 35.6 µM (inactive) | 32.4 µM (inactive) | 42.3 µM (inactive) | 41.3 µM (inactive) | 23.8 µM (inactive) | 36.8 µM (inactive) | 35.4 µM (inactive) | 31 µM (inactive) | 53 µM (inactive) |
| COC(=O)/C(=N\NC(=S)NN)C(C(=O)C(=O)Nc1ccccc1C(N)=O)c1nc2ccccc2nc1O (configuration not stated) | > 100 µM (inactive) | > 100 µM (inactive) |  | > 100 µM (inactive) | > 100 µM (inactive) | > 100 µM (inactive) | > 100 µM (inactive) | > 100 µM (inactive) | > 100 µM (inactive) |
| O=C(O)c1nccnc1C(=O)O | > 100 µM (inactive) |  | > 100 µM (inactive) | > 100 µM (inactive) | > 100 µM (inactive) | > 100 µM (inactive) |  | > 100 µM (inactive) | > 100 µM (inactive) |
| OCn1nc2c(C3OCCO3)cc3ccccc3n2c1=S | > 100 µM (inactive) | > 100 µM (inactive) | > 100 µM (inactive) | > 100 µM (inactive) | > 100 µM (inactive) | > 100 µM (inactive) | > 100 µM (inactive) | > 100 µM (inactive) | > 100 µM (inactive) |
| O=C(Cc1nc2ccccc2s1)C(=O)Nc1ccc(Cl)cc1Cl | > 100 µM (inactive) |  | > 100 µM (inactive) | > 100 µM (inactive) | > 100 µM (inactive) |  | > 100 µM (inactive) | > 100 µM (inactive) | > 100 µM (inactive) |
| CC(=O)OC1CC2C(C)(C)C(=O)C=C[C@]2(C)C2CCC3(C)C(c4ccoc4)C(=O)C4OC43[C@]12C (some centres not stated) | 22.6 µM (inactive) | 99.3 µM (inactive) | 16.5 µM (inactive) | 16 µM (inactive) | 17.2 µM (inactive) | 16.1 µM (inactive) | 51.1 µM (inactive) |  |  |
| C=C[C@@]12CCCCC1C/C(=C(/O)OC)C(=O)C2 (some centres not stated) | > 100 µM (inactive) | > 100 µM (inactive) | > 100 µM (inactive) | > 100 µM (inactive) | > 100 µM (inactive) | > 100 µM (inactive) | > 100 µM (inactive) | > 100 µM (inactive) | > 100 µM (inactive) |
| COc1cccc(-c2cc(O)c3ccccc3n2)c1 | 4.86 µM (inactive) | 15.2 µM (inactive) | 3.63 µM (inactive) | 8.15 µM (inactive) | 9.77 µM (inactive) | 4.69 µM (inactive) |  |  | 4.07 µM (inactive) |
| COc1cccc(/C=C(/C(=O)O)c2cc(OC)c(OC)c(OC)c2)c1 | > 100 µM (inactive) | > 100 µM (inactive) | > 100 µM (inactive) | > 100 µM (inactive) | > 100 µM (inactive) | > 100 µM (inactive) | > 100 µM (inactive) | > 100 µM (inactive) | 37.8 µM (inactive) |
| COc1ccc2[nH]cc(CCNC(C)=O)c2c1 [MELATONIN] | > 100 µM (inactive) | > 100 µM (inactive) | > 100 µM (inactive) | > 100 µM (inactive) | > 100 µM (inactive) | > 100 µM (inactive) | > 100 µM (inactive) |  | > 100 µM (inactive) |
| CCCCCCCCCCCCCCCCOP(=O)([O-])OCC[N+](C)(C)C [MILTEFOSINE] |  | 39.4 µM (inactive) | 18.9 µM (inactive) | 15.6 µM (inactive) | > 10 µM (inactive) | 32.6 µM (inactive) | 47.6 µM (inactive) |  | 17.9 µM (inactive) |
